According to US20100075343A1, “NOVEL PEPTIDES” (priority 2007, published 2010):
Ends that are not written are not given here.

Test system: hypothalamic cells of the apoaequorin-expressing mice
Assay: Intracellular calcium ion increase (aequorin luminescence), hypothalamus
Type: cell-based, mouse
Conditions: 5 μmol/L peptide, added at 25 seconds
Protocol: (§1) A hypothalamus, pituitary gland, kidney, heart, blood vessel, or a portion of brain tissue is collected from transgenic mice systemically expressing apoaequorin (WO02/010371) produced by introducing an apoaequorin gene expression vector into fertilized eggs. The obtained hypothalamus, pituitary gland, kidney, heart, blood vessel, or brain tissue is cut finely into pieces, suspended in a medium containing coelenterazine, and then incubated to incorporate coelenterazine into the cells to form aequorin (a complex of apoaequorin and coelenterazine). Since aequorin luminesces upon binding to intracellular calcium ions, the relative luminescence level in cells before and after addition of a medium containing the peptide or a pharmaceutically acceptable salt thereof is measured in a luminometer every second over time and is used as an indicator of intracellular calcium ion concentration. Increase in the relative luminescence level due to addition of the peptide or pharmaceutically acceptable salt thereof confirms that the peptide or pharmaceutically acceptable salt thereof has the activity to increase intracellular calcium ion concentration.
(§2) Whether Peptides 1 to 8 synthesized in Example 2 have the activity of increasing intracellular calcium ion concentration was investigated using the organs of transgenic mice introduced with the apoaequorin gene and systemically expressing apoaequorin (hereinafter referred to as apoaequorin-expressing mice). In apoaequorin-expressing mouse cells, light is emitted when apoaequorin binds to a calcium ion in the presence of the luminescent substrate coelenterazine and thus the intracellular calcium ion concentration can be monitored. Patent Document (WO02/010371) discloses the method for producing apoaequorin-expressing mice, method for evaluating biologically active substances that use biological samples derived from the mice, and experimental results of evaluating biologically active peptides using the mouse organs as shown below. […] Therefore, apoaequorin-expressing mice can be used in the evaluation of the physiological activities of novel peptides.
(§3) Apoaequorin-expressing mice were produced according to the method disclosed in Reference Example 4 of Patent Document (WO02/010371). The apoaequorin-expressing mice were sacrificed, individual organs including thymus, hypothalamus, spleen, bone, aorta, heart, kidney, adrenal gland, pancreas, pituitary gland, uterus, medulla oblongata, and spinal cord were removed; and each of the organs was cut into small cubes of approximately 1 to 2 mm^3. Next, in 5-mL tubes (Rohren-Tubes; manufactured by Sarstedt, No. 55.476), three portions of each of the prepared organs were added to 50 μL of a 10 μmol/L solution of coelenterazine (manufactured by Molecular Probes) dissolved in RPMI 1640 medium, and these were cultured at 37° C. for three hours. After culturing, RPMI 1640 medium was added, and then Peptides 1 to 5 dissolved in RPMI 1640 medium were added 25 seconds after the addition of RPMI 1640 until each peptide had final concentrations of 1 μmol/L and of 5 μmol/L, and the relative luminescence levels were measured every second immediately after the addition of RPMI 1640 medium by using a luminometer (AutoLumat LB953, manufactured by Berthold).

| Compound | increase of intracellular calcium concentration in hypothalamic cells (RLU per second) |
| --- | --- |
| Peptide 9: amino acid sequence at position 554 to 577 in human VGF (TLQPPSALRRRHYHHALPPSRHYP; synthetic Peptide 9, VGF-related peptide, human VGF positions 554-577) | increase of intracellular calcium concentration |

Same assay, conditions: peptide at final concentrations of 1 μmol/L and 5 μmol/L

| Compound | luminescence (intracellular calcium ion increase) in hypothalamus |
| --- | --- |
| Peptide 9: amino acid sequence at position 554 to 577 in human VGF (TLQPPSALRRRHYHHALPPSRHYP; synthetic Peptide 9, VGF-related peptide, human VGF positions 554-577) | luminescence was observed |

Test system: pituitary cells of the apoaequorin-expressing mice
Assay: Intracellular calcium ion increase (aequorin luminescence), pituitary gland
Type: cell-based, mouse
Conditions: 5 μmol/L peptide, added at 25 seconds
Protocol: as §1, §2, §3

| Compound | increase of intracellular calcium concentration in pituitary cells (RLU per second) |
| --- | --- |
| Peptide 9: amino acid sequence at position 554 to 577 in human VGF (TLQPPSALRRRHYHHALPPSRHYP; synthetic Peptide 9, VGF-related peptide, human VGF positions 554-577) | increase of intracellular calcium concentration |

Same assay, conditions: peptide at final concentrations of 1 μmol/L and 5 μmol/L

| Compound | luminescence (intracellular calcium ion increase) in pituitary gland |
| --- | --- |
| Peptide 9: amino acid sequence at position 554 to 577 in human VGF (TLQPPSALRRRHYHHALPPSRHYP; synthetic Peptide 9, VGF-related peptide, human VGF positions 554-577) | luminescence was observed |

Test system: antiserum against ESPGPERVW peptide of human VGF
Assay: not given
Type: binding
Conditions: 1, 10, and 100 pmol of the peptides
Protocol: Namely, to 100 μL of antiserum diluted 9×10^5 folds with RIA buffer, 100 μL of RIA buffer containing a fixed amount of [^125I]-labeled Peptide 1 (approximately 20000 cpm, 500-550 Bq, approximately 9 fmol in terms of peptide amount) and 100 μL of RIA buffer solutions each containing a sequentially diluted VGF-derived peptide were added, this was incubated at 4° C. for 40 hours, and the labeled Peptide 1 and VGF-derived peptide were competitively bound to the antibody in the antiserum. As controls, reactions that use RIA buffer instead of the antiserum to measure non-specific binding, and reactions that use RIA buffer instead of VGF-derived peptide solutions to measure the maximum binding level were carried out. Reactions for non-specific binding were performed in quadruplicates, and the other reactions were performed in duplicates, and for each of the reactants, the immune complex was precipitated as in the above-mentioned antibody titer measurements, and its radioactivity (cpm) was measured. The average radioactivity of non-specific binding reaction is defined as non-specific binding level N, the radioactivity value for each VGF-derived peptide addition reaction is defined as Y, and the radioactivity value of maximum binding reaction is defined as Z. The percentage ratio (B/B0) of antiserum specific binding level (B) with peptide addition to the maximum binding level (B0), was determined using the following formula.
B/B0(%)={(Y−N)/(Z−N)}×100
Accordingly, the amount of peptide that achieves 50% B/B0, more specifically, the amount of peptide that yields 50% inhibition of the maximum binding level, was used as an indicator of the peptide binding activity to the antiserum.

| Compound | inhibition of binding of the antiserum to labeled peptide |
| --- | --- |
| secretin | none of these peptides showed inhibition |
| corticotropin-releasing factor | none of these peptides showed inhibition |
| calcitonin | none of these peptides showed inhibition |
| neuromedin U-8 | none of these peptides showed inhibition |
| peptide HI: non-VGF peptide (HADGVFTSDYSRLLGQISAKKYLESLI; ends and bridges not checked; UniProt P01283 81-107, looked up) | none of these peptides showed inhibition |
| Leu-enkephalin | none of these peptides showed inhibition |
| melanocyte-stimulating hormone | none of these peptides showed inhibition |
| CC[C@H](C)[C@@H]1NC(=O)[C@H](CCCNC(=N)N)NC(=O)[C@H](CC(=O)O)NC(=O)[C@H](CCSC)NC(=O)[C@H](CCCNC(=N)N)NC(=O)CNC(=O)CNC(=O)[C@H](Cc2ccccc2)NC(=O)[C@@H](NC(=O)[C@H](CO)NC(=O)[C@H](CO)NC(=O)[C@H](CCCNC(=N)N)NC(=O)[C@H](CCCNC(=N)N)NC(=O)[C@H](CC(C)C)NC(=O)[C@@H](N)CO)CSSC[C@@H](C(=O)N[C@@H](CC(N)=O)C(=O)N[C@@H](CO)C(=O)N[C@@H](Cc2ccccc2)C(=O)N[C@@H](CCCNC(=N)N)C(=O)N[C@@H](Cc2ccc(O)cc2)C(=O)O)NC(=O)CNC(=O)[C@H](CC(C)C)NC(=O)CNC(=O)[C@H](CO)NC(=O)[C@H](CCC(N)=O)NC(=O)[C@H](C)NC(=O)CNC1=O [atrial natriuretic peptide] | none of these peptides showed inhibition |
| adrenomedullin | none of these peptides showed inhibition |
| PAMP-20 | none of these peptides showed inhibition |
| glucagon | none of these peptides showed inhibition |
| NC(=O)CC[C@@H]1NC(=O)[C@H](Cc2ccccc2)NC(=O)[C@H](Cc2ccc(O)cc2)NC(=O)[C@@H](N)CSSC[C@@H](C(=O)N2CCC[C@H]2C(=O)N[C@@H](CCCN=C(N)N)C(=O)NCC(N)=O)NC(=O)[C@H](CC(N)=O)NC1=O [vasopressin] | none of these peptides showed inhibition |
| calcitonin receptor-stimulating peptide | none of these peptides showed inhibition |
| Met-enkephalin-Arg-Gly-Leu (YGGFMRGL) [non-VGF peptide] | none of these peptides showed inhibition |
| neuropeptide Y | none of these peptides showed inhibition |
| melanin-concentrating hormone | none of these peptides showed inhibition |

Same assay, conditions: antiserum diluted 9×10^5 folds, [125I]-labeled peptide approximately 9 fmol

| Compound | amount of the peptide that yields 50% inhibition of the maximum binding level (B/B0 50%) |
| --- | --- |
| ESPGPERVW | 9.0 fmol |
